Laboratory results published in PubChem BioAssay (NCI).
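All cell lines were grown in 96-well plates and treated with compound for 48 hours. TGI: total growth inhibition.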

What was measured:
Test in all cases: NCI tumour cell line growth inhibition, 48 h
RXF 393 renal = test system: RXF 393 renal
OVCAR-5 ovarian = test system: OVCAR-5 ovarian
MALME-3M melanoma = test system: MALME-3M melanoma
OVCAR-4 ovarian = test system: OVCAR-4 ovarian
TK-10 renal = test system: TK-10 renal
RXF-631 renal = test system: RXF-631 renal
SW-620 colon = test system: SW-620 colon
SNB-75 CNS = test system: SNB-75 CNS
HOP-92 NSCLC = test system: HOP-92 NSCLC
EKVX NSCLC = test system: EKVX NSCLC
HCC-2998 colon = test system: HCC-2998 colon
UO-31 renal = test system: UO-31 renal
OVCAR-8 ovarian = test system: OVCAR-8 ovarian
SK-MEL-5 melanoma = test system: SK-MEL-5 melanoma
K-562 leukemia = test system: K-562 leukemia
SK-MEL-2 melanoma = test system: SK-MEL-2 melanoma
U251 CNS = test system: U251 CNS
HCT-116 colon = test system: HCT-116 colon
HL-60(TB) leukemia = test system: HL-60(TB) leukemia
NCI-H522 lung = test system: NCI-H522 lung
UACC-257 melanoma = test system: UACC-257 melanoma
HOP-62 NSCLC = test system: HOP-62 NSCLC
MOLT-4 leukemia = test system: MOLT-4 leukemia
SK-OV-3 ovarian = test system: SK-OV-3 ovarian
IGROV1 ovarian = test system: IGROV1 ovarian
NCI-H23 lung = test system: NCI-H23 lung
DMS 273 small cell lung = test system: DMS 273 small cell lung
LXFL 529 NSCLC = test system: LXFL 529 NSCLC
LOX IMVI melanoma = test system: LOX IMVI melanoma
NCI-H226 lung = test system: NCI-H226 lung
DLD-1 colon = test system: DLD-1 colon
RPMI-8226 leukemia = test system: RPMI-8226 leukemia
HOP-18 NSCLC = test system: HOP-18 NSCLC
NCI-H460 lung = test system: NCI-H460 lung
M14 melanoma = test system: M14 melanoma
UACC-62 melanoma = test system: UACC-62 melanoma
SF-268 CNS = test system: SF-268 CNS
KM12 colon = test system: KM12 colon
KM20L2 colon = test system: KM20L2 colon
SNB-19 CNS = test system: SNB-19 CNS
DMS 114 small cell lung = test system: DMS 114 small cell lung
HT29 colon = test system: HT29 colon
CCRF-CEM leukemia = test system: CCRF-CEM leukemia
A498 renal = test system: A498 renal
OVCAR-3 ovarian = test system: OVCAR-3 ovarian
786-0 renal = test system: 786-0 renal
SR leukemia = test system: SR leukemia
COLO 205 colon = test system: COLO 205 colon
A549 NSCLC = test system: A549 NSCLC
SNB-78 CNS = test system: SNB-78 CNS
SF-539 CNS = test system: SF-539 CNS
SN12C renal = test system: SN12C renal
SF-295 CNS = test system: SF-295 CNS
XF 498 CNS = test system: XF 498 CNS
HCT-15 colon = test system: HCT-15 colon
CAKI-1 renal = test system: CAKI-1 renal
ACHN renal = test system: ACHN renal
SK-MEL-28 melanoma = test system: SK-MEL-28 melanoma
M19-MEL melanoma = test system: M19-MEL melanoma

## CC(C)C1(O)C(c2ccccc2)=C(c2ccccc2)C(c2ccccc2)=C1c1ccccc1
RXF 393 renal
  TGI: 13.3 µM
OVCAR-5 ovarian
  TGI: > 100 µM
MALME-3M melanoma
  TGI: 30.9 µM
OVCAR-4 ovarian
  TGI: > 100 µM
TK-10 renal
  TGI: 56.3 µM
RXF-631 renal
  TGI: 51.3 µM
SW-620 colon
  TGI: > 100 µM
SNB-75 CNS
  TGI: 58.5 µM
HOP-92 NSCLC
  TGI: 50.2 µM
EKVX NSCLC
  TGI: 47 µM
HCC-2998 colon
  TGI: 30.4 µM
UO-31 renal
  TGI: 23.7 µM
OVCAR-8 ovarian
  TGI: > 100 µM
SK-MEL-5 melanoma
  TGI: 22.4 µM
K-562 leukemia
  TGI: > 100 µM
SK-MEL-2 melanoma
  TGI: 18.9 µM
U251 CNS
  TGI: 18.7 µM
HCT-116 colon
  TGI: 13.4 µM
HL-60(TB) leukemia
  TGI: 7.07 µM
NCI-H522 lung
  TGI: 23.9 µM
UACC-257 melanoma
  TGI: 26.2 µM
HOP-62 NSCLC
  TGI: 30.1 µM
MOLT-4 leukemia
  TGI: 9.27 µM
SK-OV-3 ovarian
  TGI: > 100 µM
IGROV1 ovarian
  TGI: > 100 µM
NCI-H23 lung
  TGI: 91.3 µM
DMS 273 small cell lung
  TGI: 37.1 µM
LXFL 529 NSCLC
  TGI: 51.9 µM
LOX IMVI melanoma
  TGI: 20 µM
NCI-H226 lung
  TGI: 31.6 µM
DLD-1 colon
  TGI: > 100 µM
RPMI-8226 leukemia
  TGI: 5.26 µM
HOP-18 NSCLC
  TGI: 52.7 µM
NCI-H460 lung
  TGI: 46.8 µM
M14 melanoma
  TGI: 22.4 µM
UACC-62 melanoma
  TGI: 20.9 µM
SF-268 CNS
  TGI: 27.6 µM
KM12 colon
  TGI: 17.9 µM
KM20L2 colon
  TGI: 23.3 µM
SNB-19 CNS
  TGI: > 100 µM
DMS 114 small cell lung
  TGI: 11.8 µM
HT29 colon
  TGI: 16 µM
CCRF-CEM leukemia
  TGI: > 100 µM
A498 renal
  TGI: 56.3 µM
OVCAR-3 ovarian
  TGI: 27.8 µM
786-0 renal
  TGI: 74.4 µM
SR leukemia
  TGI: 36 µM
COLO 205 colon
  TGI: 21.7 µM
A549 NSCLC
  TGI: 54.6 µM
SNB-78 CNS
  TGI: > 100 µM
SF-539 CNS
  TGI: 28.6 µM
SN12C renal
  TGI: 41.6 µM
SF-295 CNS
  TGI: 30.2 µM
XF 498 CNS
  TGI: 14.2 µM
HCT-15 colon
  TGI: 46.8 µM
CAKI-1 renal
  TGI: > 100 µM

## CC(=O)N[C@@H]1C(O)CN2C(=O)C(=O)O[C@H](C(O)CO)[C@@H]12 (some centres undefined)
RXF 393 renal
  TGI: > 100 µM
OVCAR-5 ovarian
  TGI: > 100 µM
MALME-3M melanoma
  TGI: > 100 µM
TK-10 renal
  TGI: > 100 µM
RXF-631 renal
  TGI: > 100 µM
SW-620 colon
  TGI: > 100 µM
SNB-75 CNS
  TGI: > 100 µM
HOP-92 NSCLC
  TGI: > 100 µM
EKVX NSCLC
  TGI: > 100 µM
HCC-2998 colon
  TGI: > 100 µM
UO-31 renal
  TGI: > 100 µM
OVCAR-8 ovarian
  TGI: > 100 µM
ACHN renal
  TGI: > 100 µM
K-562 leukemia
  TGI: > 100 µM
SK-MEL-2 melanoma
  TGI: > 100 µM
U251 CNS
  TGI: > 100 µM
HCT-116 colon
  TGI: > 100 µM
HL-60(TB) leukemia
  TGI: > 100 µM
NCI-H522 lung
  TGI: > 100 µM
SK-MEL-28 melanoma
  TGI: > 100 µM
UACC-257 melanoma
  TGI: > 100 µM
HOP-62 NSCLC
  TGI: > 100 µM
MOLT-4 leukemia
  TGI: > 100 µM
SK-OV-3 ovarian
  TGI: > 100 µM
IGROV1 ovarian
  TGI: > 100 µM
DMS 273 small cell lung
  TGI: > 100 µM
LXFL 529 NSCLC
  TGI: > 100 µM
LOX IMVI melanoma
  TGI: > 100 µM
DLD-1 colon
  TGI: > 100 µM
RPMI-8226 leukemia
  TGI: > 100 µM
HOP-18 NSCLC
  TGI: > 100 µM
NCI-H460 lung
  TGI: > 100 µM
SF-268 CNS
  TGI: > 100 µM
KM12 colon
  TGI: > 100 µM
KM20L2 colon
  TGI: > 100 µM
SNB-19 CNS
  TGI: > 100 µM
M19-MEL melanoma
  TGI: > 100 µM
DMS 114 small cell lung
  TGI: > 100 µM
HT29 colon
  TGI: > 100 µM
CCRF-CEM leukemia
  TGI: > 100 µM
A498 renal
  TGI: > 100 µM
OVCAR-3 ovarian
  TGI: > 100 µM
786-0 renal
  TGI: > 100 µM
COLO 205 colon
  TGI: > 100 µM
A549 NSCLC
  TGI: > 100 µM
SNB-78 CNS
  TGI: > 100 µM
SF-539 CNS
  TGI: > 100 µM
SF-295 CNS
  TGI: > 100 µM
XF 498 CNS
  TGI: > 100 µM

## CC1OC(OCC2OC(Oc3c(-c4ccc(O)cc4)oc4cc(O)cc(O)c4c3=O)C(OC3OC(C)C(O)C(O)C3O)C(O)C2O)C(O)C(O)C1O (centres undefined)
RXF 393 renal
  TGI: > 100 µM
OVCAR-5 ovarian
  TGI: > 100 µM
MALME-3M melanoma
  TGI: > 100 µM
OVCAR-4 ovarian
  TGI: > 90.2 µM
TK-10 renal
  TGI: > 100 µM
RXF-631 renal
  TGI: > 100 µM
SW-620 colon
  TGI: > 62.4 µM
SNB-75 CNS
  TGI: > 100 µM
HOP-92 NSCLC
  TGI: > 100 µM
EKVX NSCLC
  TGI: > 100 µM
HCC-2998 colon
  TGI: > 100 µM
UO-31 renal
  TGI: > 100 µM
OVCAR-8 ovarian
  TGI: > 100 µM
ACHN renal
  TGI: > 100 µM
SK-MEL-5 melanoma
  TGI: > 100 µM
K-562 leukemia
  TGI: > 31.6 µM
SK-MEL-2 melanoma
  TGI: > 100 µM
U251 CNS
  TGI: > 100 µM
HCT-116 colon
  TGI: > 100 µM
HL-60(TB) leukemia
  TGI: > 100 µM
NCI-H522 lung
  TGI: > 100 µM
SK-MEL-28 melanoma
  TGI: > 100 µM
UACC-257 melanoma
  TGI: > 100 µM
HOP-62 NSCLC
  TGI: > 100 µM
MOLT-4 leukemia
  TGI: > 100 µM
SK-OV-3 ovarian
  TGI: > 100 µM
IGROV1 ovarian
  TGI: > 100 µM
NCI-H23 lung
  TGI: > 100 µM
DMS 273 small cell lung
  TGI: > 100 µM
LXFL 529 NSCLC
  TGI: > 100 µM
LOX IMVI melanoma
  TGI: > 100 µM
NCI-H226 lung
  TGI: > 100 µM
DLD-1 colon
  TGI: > 100 µM
RPMI-8226 leukemia
  TGI: > 81.3 µM
HOP-18 NSCLC
  TGI: > 100 µM
NCI-H460 lung
  TGI: > 100 µM
M14 melanoma
  TGI: > 100 µM
UACC-62 melanoma
  TGI: > 100 µM
SF-268 CNS
  TGI: > 100 µM
KM12 colon
  TGI: > 100 µM
KM20L2 colon
  TGI: > 100 µM
SNB-19 CNS
  TGI: > 100 µM
M19-MEL melanoma
  TGI: > 100 µM
DMS 114 small cell lung
  TGI: > 77.4 µM
HT29 colon
  TGI: > 100 µM
CCRF-CEM leukemia
  TGI: > 83.5 µM
A498 renal
  TGI: > 100 µM
OVCAR-3 ovarian
  TGI: > 100 µM
786-0 renal
  TGI: > 100 µM
SR leukemia
  TGI: > 100 µM
COLO 205 colon
  TGI: > 72.7 µM
A549 NSCLC
  TGI: > 100 µM
SNB-78 CNS
  TGI: > 100 µM
SF-539 CNS
  TGI: > 100 µM
SN12C renal
  TGI: > 100 µM
SF-295 CNS
  TGI: > 100 µM
XF 498 CNS
  TGI: > 100 µM
HCT-15 colon
  TGI: > 56.8 µM
CAKI-1 renal
  TGI: > 100 µM
